Columns and labels:
[1] = tested on: A549-Luc-BM1-implanted tibia; assay: Bone morphometrical analyses by micro-CT; type: in vivo, BALB/c nude mice; details: micro-CT after 4 weeks dosing; TAS-115 200, cabozantinib 15, sunitinib 40, crizotinib 100 mg/kg oral; vs control
Experimental: On day 29, the mice were euthanized by cervical dislocation under isoflurane anesthesia, and subsequently the A549-Luc-BM1-implanted tibia was removed and was fixed in 4% paraformaldehyde solution. Micro-CT imaging was performed by using Rm_CT2 (Rigaku corporation, Tokyo, Japan) with the following parameters: 90 kV, 160 μA, 3 min exposure, 10 mm field of view (20 μm voxel size). After scanning, 3D reconstruction was performed to produce a series of cross-sectional images by using specific software (3D Viewer Version 3.00.01, Rigaku corporation). In addition, bone mineral density (BMD) and 3D morphometrical primary parameters, including total volume (TV) and bone volume (BV), were calculated by using bone microstructure software (TRI/3D-BON-FCS64, Ratoc System Engineering, Tokyo, Japan). Volumetric BMD (vBMD), which has been reported to be a good index of osteoporosis, was calculated from primary parameters using the following formula: vBMD = BMD × BV / TV.

[2] = biological target: T1, Recombinant human FMS dephosphorylated with lambda phosphatase (dephospho-rhFMS) (Homo sapiens, UniProt P07333); assay: In vitro kinase assay, recombinant dephospho-FMS (LANCE Ultra TR-FRET); type: biochemical; details: 100 μM ATP
T1 sequence (P07333 538-972): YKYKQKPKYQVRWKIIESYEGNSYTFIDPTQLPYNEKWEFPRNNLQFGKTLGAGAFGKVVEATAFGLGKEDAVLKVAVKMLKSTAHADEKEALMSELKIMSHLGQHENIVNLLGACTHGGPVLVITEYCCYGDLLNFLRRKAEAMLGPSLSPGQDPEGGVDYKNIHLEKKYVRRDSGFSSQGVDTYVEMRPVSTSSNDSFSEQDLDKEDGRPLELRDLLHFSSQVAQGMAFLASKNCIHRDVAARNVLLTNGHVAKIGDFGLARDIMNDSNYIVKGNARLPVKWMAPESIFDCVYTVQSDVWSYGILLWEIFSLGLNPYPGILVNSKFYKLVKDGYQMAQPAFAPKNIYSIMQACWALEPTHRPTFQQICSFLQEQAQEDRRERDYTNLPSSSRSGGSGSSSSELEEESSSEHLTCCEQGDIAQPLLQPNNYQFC
Experimental: (§1) Enzyme inhibition studies were performed using LANCE® Ultra TR-FRET assay technology. Briefly, 0.03 μg/mL dephospho-rhFMS and 100 nM ULightTM-poly GT (4:1) (PerkinElmer) were mixed and incubated for 40 min at 25°C in 10 μL of reaction mixture containing 100 μM ATP, 15 mM tris (hydroxymethyl) aminomethane (Tris (pH 7.5)), 0.01% (v/v) Tween 20, 5 mM MgCl2, 2 mM dithiothreitol and various concentrations of the test compound. […] By referring to the TR-FRET signals of positive (no inhibitor) and negative (EDTA was added before the reaction was started) control wells, the percent inhibition of each well was calculated and the half-maximal inhibitory concentration (IC50) value was determined using a four-parameter sigmoidal equation. The assay of MET and VEGFR2 kinase activity was performed as described previously.

A549-Luc-BM1 cells = assay: Proliferation of A549-Luc-BM1 cells (CellTiter-Glo); type: cell-based; details: Homo sapiens, 72 hr post drug addition, read-out: 50% growth inhibitory concentration (GI50) for A549-Luc-BM1 cells
Experimental: Supplementary file pone.0164830.s002.tif: S2 Fig The effect of TAS-115 on the proliferation of A549-Luc-BM1 cells. A549-Luc-BM1 cells were seeded on 96 well plates at a density of 10^3 cells/well in RPMI1640 containing 10% FBS. […] At 72 hr post drug addition, cell viability was determined using CellTiter-Glo^TM. The 50% growth inhibition (GI50) values were determined using SAS version 9.2. (TIF) Click here for additional data file.

MET = MET (Homo sapiens, UniProt P08581); assay: In vitro kinase assay, MET; type: biochemical; details: assay as described previously [16]
Experimental: as §1

[3] = tested on: TRAP-positive osteoclasts at tumor-bone boundary; assay: TRAP staining of A549-Luc-BM1-implanted tibiae, osteoclast number; type: in vivo, BALB/c nude mice; details: 2 weeks oral; TAS-115 200, cabozantinib 15, sunitinib 40, crizotinib 100 mg/kg, combination; vs control
Experimental: On day 15, the mice were euthanized by cervical dislocation under isoflurane anesthesia, and their tibiae were collected. For CD31 staining, frozen sections (3 μm thick) were prepared using Kawamoto’s film method. Purified Rat Anti-Mouse CD31 (1:100, BD Pharmingen^TM) was detected using Simple Stain^TM Mouse MAX PO (Rat) (Nichirei) and 3,3’-diaminobenzidine (Dako, Glostrup, Denmark). For Ki-67 and TRAP staining, formalin-fixed paraffin-embedded sections (2 μm thick) were prepared. Anti-human Ki-67 Rabbit Monoclonal Antibody (1:50, Epitomics) was detected using the EnVisionTM^+ System (Dako). TRAP staining was performed using the TRAP/ALP Stain Kit (Wako Pure chemical Industries, Ltd.). To quantify each staining, whole slides were scanned under 20× magnification with the Aperio Scan-Scope XT Slide Scanner (Aperio Technologies, Inc., CA). To quantify CD31-positive microvessels as microvessel density (MVD, number/mm^2), four fields of tumor area per section excluding bone and necrotic tissue were analyzed by using Image-Pro Plus (Media Cybernetics, Inc., Carlsbad, CA). […] Ki-67-positive cells and total tumor cells were counted by using Image-Pro Plus. The Ki-67 index is expressed as a percentage (the number of Ki-67-positive tumor cells / the total number of the tumor cells × 100). […] The boundary length was calculated by Image-Pro Plus. […]

Chain of MET (P08581 25-1390): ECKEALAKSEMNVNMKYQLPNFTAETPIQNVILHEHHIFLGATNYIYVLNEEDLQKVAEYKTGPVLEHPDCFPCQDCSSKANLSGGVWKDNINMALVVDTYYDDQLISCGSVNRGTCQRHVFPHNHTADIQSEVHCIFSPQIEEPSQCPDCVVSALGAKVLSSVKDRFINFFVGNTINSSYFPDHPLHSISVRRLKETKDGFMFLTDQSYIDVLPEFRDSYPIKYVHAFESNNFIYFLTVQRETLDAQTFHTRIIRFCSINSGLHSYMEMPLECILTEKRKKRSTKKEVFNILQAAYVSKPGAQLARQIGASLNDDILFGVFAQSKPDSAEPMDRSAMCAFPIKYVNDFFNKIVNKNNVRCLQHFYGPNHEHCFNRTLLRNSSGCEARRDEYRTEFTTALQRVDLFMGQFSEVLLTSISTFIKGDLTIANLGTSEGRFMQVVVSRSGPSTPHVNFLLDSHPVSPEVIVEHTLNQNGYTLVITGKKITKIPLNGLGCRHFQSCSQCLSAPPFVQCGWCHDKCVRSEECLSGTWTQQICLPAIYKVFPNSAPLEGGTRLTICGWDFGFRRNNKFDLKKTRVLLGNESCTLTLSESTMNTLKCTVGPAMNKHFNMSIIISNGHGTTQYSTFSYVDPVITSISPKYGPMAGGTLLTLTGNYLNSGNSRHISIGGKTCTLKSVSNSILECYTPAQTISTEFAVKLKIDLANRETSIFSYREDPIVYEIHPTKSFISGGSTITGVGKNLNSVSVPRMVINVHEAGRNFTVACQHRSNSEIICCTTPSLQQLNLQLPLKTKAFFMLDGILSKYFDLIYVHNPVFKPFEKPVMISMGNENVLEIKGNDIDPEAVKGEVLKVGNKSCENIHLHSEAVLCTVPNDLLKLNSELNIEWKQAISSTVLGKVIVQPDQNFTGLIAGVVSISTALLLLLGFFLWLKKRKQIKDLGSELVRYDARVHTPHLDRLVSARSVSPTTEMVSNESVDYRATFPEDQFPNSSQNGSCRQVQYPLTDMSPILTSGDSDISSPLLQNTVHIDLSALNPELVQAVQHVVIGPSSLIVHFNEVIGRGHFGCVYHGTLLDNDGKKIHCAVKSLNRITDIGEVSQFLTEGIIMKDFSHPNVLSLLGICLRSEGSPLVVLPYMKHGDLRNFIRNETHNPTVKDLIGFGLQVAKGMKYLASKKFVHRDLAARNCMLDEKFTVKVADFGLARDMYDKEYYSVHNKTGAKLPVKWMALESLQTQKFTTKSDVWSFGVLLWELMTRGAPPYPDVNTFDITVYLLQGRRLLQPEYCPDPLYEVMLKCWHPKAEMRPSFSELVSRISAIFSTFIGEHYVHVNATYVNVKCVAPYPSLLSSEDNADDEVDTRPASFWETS

With `CNC(=O)c1cc2c(Oc3ccc(NC(=S)NC(=O)Cc4ccccc4)cc3F)ccnc2cc1OC` [TAS-115, 4-[2-fluoro-4-[[[(2-phenylacetyl)amino]thioxomethyl]amino]-phenoxy] -7-methoxy-N-methyl-6-quinolinecarboxamide] the “A549-Luc-BM1-induced changes in bone parameters (BV, TV, BMD, vBMD)” value [1] was “significantly suppressed all of the changes”, the IC50 [2] was 15 nM and the GI50 (A549-Luc-BM1 cells) was 11200 nM. The IC50 (MET) was 32 nM and the “number of TRAP-positive osteoclasts at tumor-bone boundary” value [3] was “significantly decreased”.
